In doi:10.1101/2021.04.29.441652v1 (biorxiv, 2021):

Key:
[1] = biological target: T1, human σ2 receptor (TMEM97) (Homo sapiens, UniProt Q5BJF2); assay: biochemical; type: Expi293 membranes
[2] = biological target: T1, human σ2 receptor (TMEM97); assay: biochemical; type: Expi293 membranes; conditions: read-out: % of control remaining

T1 sequence (Q5BJF2 whole entry): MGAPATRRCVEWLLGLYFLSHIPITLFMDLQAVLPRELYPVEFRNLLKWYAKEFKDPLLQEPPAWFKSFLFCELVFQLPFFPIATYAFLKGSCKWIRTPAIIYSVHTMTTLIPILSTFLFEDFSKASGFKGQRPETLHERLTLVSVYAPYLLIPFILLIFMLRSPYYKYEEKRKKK

Row | Compound | Ki [1] [nM] | remaining activity at 1 µM [2] [%]
1 | CC1CCN(C2CCC(NC(=O)C(=O)Nc3ccc(C(C)C)cc3)CC2)CC1 (stereo not drawn) [ZINC000131303503] | 14.7 | 10.7
2 | N/C(=N\Cc1ccc(F)cc1Br)NCC1CCC1 [ZINC000170908795] | 6.7 | 0.9
3 | O=C(CC1CCCC1)NC1CCN(C[C@H](O)C2CCCCC2)CC1 [ZINC000191344346] | 11.7 | 8.7
4 | c1ccc(CSc2cncc(N3CCC[C@H](N4CCCC4)CC3)n2)cc1 [ZINC000301801549] | 19.6 | 6.9
5 | Cc1ccc([C@H]2CCN(CC3(O)CCC3)C2)c(C)c1 [ZINC000348332392] | 33.7 | 5.2
6 | CC(C)(C)[C@@H]1CCN(C[C@@H](O)COCc2ccccc2F)C1 [ZINC000409447221] | 8.85 | 9.7
7 | CCOC(=O)[C@@H](CC)N1CCN(C2CCC(C(C)C)CC2)CC1 (stereo partly drawn) [ZINC000440321606] | 4.15 | 11.9
8 | C[C@@H](c1ccccc1)[C@@H](O)CN1CCC(c2c[nH]c3ncccc23)CC1 [ZINC000450573233] | 4.3 | 3.6
9 | CN(C[C@]1(O)CCN(Cc2ccccc2)C1)C(=O)c1ccc(F)c2ccccc12 [ZINC000480785335] | 12.9 | 9.8
10 | Cc1cc(C)c2cc(CN3CCC[C@H](N4CCCC4)CC3)[nH]c2c1 [ZINC000481989921] | 21.6 | 11.7
11 | C[C@@H](C(=O)N(C)Cc1cccc(F)c1)N1CC=C(c2c[nH]c3ncccc23)CC1 [ZINC000533478938] | 34.5 | 2.7
12 | Cc1ccc(CCC2CCN(C(=O)CN3C[C@@H]4CC[C@@H](O)[C@H]4C3)CC2)cc1 [ZINC000544117725] | 10 | 0
13 | CC1CCC(O)(CN2CC(Cc3ccc(F)c(F)c3)C2)CC1 (stereo not drawn) [ZINC000548355486] | 2.4 | 0.4
14 | Cc1cccc(C)c1OC[C@H](O)CN1CC[C@@H](CC2CC2)C1 [ZINC000559413424] | 10.5 | 11.9
15 | O[C@@H](COCc1ccccc1Cl)CN1CC[C@H](Cc2ccc(F)cc2)C1 [ZINC000605902355] | 13.7 | 11.5
16 | Cc1ccc(CC2CN(CC3(O)CCSCC3)C2)cc1 [ZINC000656714762] | 67.8 | 9.3
17 | C1CCC([C@@H]2CCN(CCC3CCOCC3)C2)CC1 [ZINC000661577595] | 1.76 | 6.4
18 | c1ccc(N2CCC(NC[C@@H]3C[C@H]4CCC[C@@H]4O3)CC2)cc1 [ZINC000872109019] | 14.7 | 11.6
19 | CC(C)(C)[C@@H]1CCN(C[C@@H](O)CC2(O)CCCCC2)C1 [ZINC000878406056] | 7.66 | 11.8
20 | CC(C)(NCc1ccc2c(c1)OCCO2)[C@H](O)c1ccccc1 [ZINC000895657866] | 21.4 | 3
21 | O[C@@]1(CNCc2cccc3c2OCC3)CCc2ccccc21 [ZINC000921927365] | 67.3 | 12.5
22 | CC1CC(CN2CC(N3CCN(C(=O)[C@H](C)C4CCCC4)CC3)C2)C1 (stereo partly drawn) [ZINC000941634458] | 20.3 | 12.7
23 | CCc1nnsc1C(=O)N[C@H]1[C@@H]2CN(CC3CCCCCC3)C[C@@H]21 [ZINC000960887654] | 18.1 | 12.9
24 | CN1CCC[C@@H]1C(=O)NC[C@H]1CN(CCCC(C)(C)C)CCCO1 [ZINC001149399826] |  | 96.4

Row | Compound | Ki [1] [nM] | remaining activity at 1 µM [2] [%]
25 | C(=C\c1ccccc1)/CNc1ccc2c(n1)CCC2 [ZINC001156463732] |  | 32.6
26 | Cc1cc(C)cc(C2=CCN(CCC(=O)N3CCc4ccccc43)CC2)c1 [ZINC001168222793] |  | 13.7
27 | C[C@@H](C(=O)NCc1ccc(Cl)cc1)N1CCC(C(C)(C)C)CC1 [ZINC001169307444] |  | 21.2
28 | Fc1ccccc1[C@H]1CCN(CC#Cc2cccc(Cl)c2)C1 [ZINC001170548029] | 22.6 | 8.4
29 | CCOCCNC(=O)CN1C[C@@H](O)[C@H](NC(=O)[C@@]23COC[C@@H]2C3)C1 [ZINC001193095852] |  | 112
30 | COc1ccc2c(c1)C[C@H](CN1CCCC[C@H]1CCC(=O)OC(C)(C)C)O2 [ZINC001195393353] |  | 54.5
31 | CCc1ccc(F)cc1C(=O)N1CCCN(CCOC(C)C)CC1 [ZINC001196417557] |  | 71.9
32 | CC(C)CCO[C@@H]1CCN(C[C@H]2CC3(CCCCC3)CO2)C1 [ZINC001196519317] | 2.4 | 1.2
33 | Cc1cc(C(=O)N2CCCO[C@@H](CNCC(=O)NC3CC3)C2)n(C)n1 [ZINC001199969207] |  | 124
34 | CN(C)S(=O)(=O)N(C)CC(=O)N[C@@H]1C[C@H](NCCO)C12CCC2 [ZINC001202928172] |  | 117
35 | C[C@@H]1CN([C@H]2CCc3ccccc3NC2=O)C[C@H]1NC(=O)/C=C\C(C)(C)C [ZINC001206651458] |  | 109
36 | Fc1c(CN2CCN(C[C@@H]3CCCO3)CC2)ccc(Br)c1Cl [ZINC001237901728] | 27 | 4.5
37 | O[C@@H](COCc1ccccc1F)CN1CC(Cc2ccccc2C(F)(F)F)C1 [ZINC001254761628] | 4.7 | 1.1
38 | CCNS(=O)(=O)CCNC(=O)C(=O)N[C@@H](C)C1=CCN(C)CC1 [ZINC001261177261] |  | 70.9
39 | CN1C(=O)[C@H]2CN(C(=O)C(=O)NC3CCC(F)(F)CC3)C[C@H]2C1=O [ZINC001261948364] |  | 90.8
40 | CC[C@H]1CCN(CC(=O)Nc2cc(Cl)ccc2C#N)[C@H]1C [ZINC001307701283] |  | 62.5
41 | FC(F)(F)c1ccnc([C@H]2CCN(CCCc3ccc4c(c3)CCO4)C2)n1 [ZINC001308961074] |  | 2.4
42 | OC1(CN2CC(Cc3ccccc3C(F)(F)F)C2)CCC1 [ZINC001320149247] |  | 14.7
43 | COC(=O)N1CCC[C@H](NC(=O)C(=O)N2CC[C@@](O)(C3CC3)C2)C1 [ZINC001323717111] |  | 95
44 | COC(=O)[C@@H]1C[C@H](O)CN(C(=O)C(=O)N[C@H](C)C2CCOCC2)C1 [ZINC001326422624] |  | 99.2
45 | C[C@@H](CNC(=O)C(=O)NCc1nnn(C)n1)N(C)Cc1ccccc1 [ZINC001328800283] |  | 86.4
46 | COc1cccc2c1OC[C@H](NC(=O)C(=O)N[C@@H]1CC(=O)N(C)C1)C2 [ZINC001341791776] |  | 222
47 | O=C(Nc1ccc2c(=O)[nH]ccc2c1)C(=O)N1C[C@H](CO)[C@@H](O)C1 [ZINC001350153389] |  | 93.3
48 | CN(C[C@H]1CCCN1C)C(=O)[C@]1(C)CC(c2ccccc2Cl)=NO1 [ZINC001362573982] |  | 94.8

Now from value to compound:

Row | Ki [1] [nM] | remaining activity at 1 µM [2] [%] | Compound
49 |  | 78.6 | O=C([C@@H]1CCc2nnc(O)n2C1)N1CC(CNC(=O)C(F)(F)F)C1 [ZINC001363211634]
50 |  | 104 | O=S(=O)(N[C@@H]1CCc2nnnn2CC1)c1cnc2n1CCCC2 [ZINC001363999416]
51 |  | 109 | COC[C@@H](O)CN1CC[C@H](NC(=O)c2c(C)c(C)nn(C)c2=O)C1 [ZINC001365986475]
52 |  | 111 | O=C(CCn1cccn1)NCCN1CCN(CCn2cccn2)CC1 [ZINC001369886058]
53 | 13.5 | 9.7 | C[C@H](C(=O)NC[C@]1(O)CCN(CCC2CCCC2)C1)c1ccccc1 [ZINC001376084945]
54 |  | 102 | CCC1(C(=O)NCC[C@@H]2CCN(Cc3nccn3C)C2)CCCC1 [ZINC001377717241]
55 |  | 71.1 | Cc1ccnc(CN[C@@H](C)CCNC(=O)c2ccn(C(C)C)c2C)n1 [ZINC001381212829]
56 |  | 43.6 | O=C(NCC1CN(CCC2CCCC2)C1)C1(c2cccnc2)CC1 [ZINC001391502525]
57 |  | 21.2 | C[C@@H]1CCC[C@H](CCN(C)CCNC(=O)c2c3c(nn2C)CCC3)C1 [ZINC001399642198]
58 |  | 65.3 | COc1ccc(C(=O)N(C)C[C@H](C)NCC2CCC(C)(C)CC2)nn1 [ZINC001403624658]
59 |  | 118 | CC(=O)N[C@@H]1CCN(S(=O)(=O)c2cnn([C@@H]3CCOC3)c2)C1 [ZINC001413380655]
60 |  | 80.5 | CCN1CCCC[C@H]1C(=O)NC[C@@H](O)CNC(=O)c1cnccn1 [ZINC001416718427]
61 |  | 130 | CC(C)N1CC[C@H](CCNC(=O)c2cc(-c3cccnc3)on2)C1 [ZINC001418905447]
62 |  | 19.6 | Cc1cc(C)nc(C(=O)NCCC2CCN(CCOC(C)C)CC2)c1 [ZINC001419404744]
63 |  | 78.5 | COCC1(C(=O)N2CCC[C@@H](N(C)CC[C@H](C)F)C2)CC1 [ZINC001420054689]
64 |  | 103 | Cc1cnc(CN2CC[C@@H](CCNC(=O)c3cncs3)C2)s1 [ZINC001437918206]
65 | 5.2 | 8 | CC[C@@H](CO)N1CCC(CCc2ccc(F)cc2F)CC1 [ZINC001460312963]
66 | 7.92 | 10.9 | O[C@@H](CN1CC[C@@H](C2CCCCC2)C1)CC1(O)CCCCC1 [ZINC001460371878]
67 |  | 62.3 | Cc1cc(C)c(/C=C\CN2CCC[C@@H](O)C2)cc1C [ZINC001474404955]
68 |  | 104 | O=C(C[C@]1(O)CCCNC1)Nc1cn2cc(Br)ncc2n1 [ZINC001515357045]
69 |  | 117 | O=C(OC[C@@H]1CCN1Cc1ccccc1)c1nccc2occc12 [ZINC001525937517]
70 |  | 19.6 | Cc1cccc2c1CCN2C(=O)[C@@H]1CC[C@H]2CCCC[C@@H]2N1 [ZINC001579778746]
71 |  | 122 | N[C@H](Cc1ccccn1)C(=O)NCc1ccccc1C(F)(F)F [ZINC001580410121]
72 |  | 112 | C[C@@H]1CN(CC(=O)NCCCO[C@@H](C)c2ccccc2)[C@H](C)CCO1 [ZINC001655120594]
